Laboratory results as given in publication PMC8399565, “Fluorescence Cross-Correlation Spectroscopy Yields True Affinity and Binding Kinetics of Plasmodium Lactate Transport Inhibitors” (Pharmaceuticals, 2021).
Entries after “also recorded” stand apart in the source; their conditions may differ. Where two headings read alike, the source gives them in different places.

Experiments:
PfFNT-GFP = target: T1, PfFNT-GFP (Plasmodium falciparum, UniProt O77389); experiment: Live cell confocal imaging, co-localization with PfFNT-GFP in HEK293 cells; assay type: cell-based; conditions: for co-localization / membrane localization: probe after 0.05% Triton X-100 permeabilization, 0.5-5 min
T1 construct: The DNA of full-length PfFNT from Plasmodium falciparum 3D7 was cloned as a C-terminal GFP fusion; expressed in transfected cells; intact cells for imaging, LMNG-solubilized membranes or lysates for FCCS
T1 sequence (O77389 whole entry, the tested form may be a part): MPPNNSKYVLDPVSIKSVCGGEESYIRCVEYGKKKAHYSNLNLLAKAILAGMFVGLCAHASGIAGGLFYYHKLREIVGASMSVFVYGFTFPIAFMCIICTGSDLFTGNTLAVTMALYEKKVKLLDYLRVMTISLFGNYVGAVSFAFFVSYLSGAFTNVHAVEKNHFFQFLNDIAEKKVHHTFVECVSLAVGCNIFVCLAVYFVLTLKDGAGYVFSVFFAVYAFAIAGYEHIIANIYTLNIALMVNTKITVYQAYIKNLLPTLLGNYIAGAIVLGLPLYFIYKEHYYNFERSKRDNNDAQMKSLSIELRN
Protocol: BH296-DY647 was added at a concentration of 50 nM to cultured HEK cells stably expressing PfFNT-GFP to test for co-localization of the compound with the target at the plasma membrane by confocal imaging. […] As the cytoplasmic domain of the transporter is inaccessible for the compound, we next explored possibilities to permeabilize the plasma membrane and to retain cell viability for the time of incubation. For this, we used Triton X-100 at a final concentration of 0.05%, as described previously to allow for diffusion of compounds into the cell. […] A prolonged incubation was impeded by incipient cell disintegration and membrane blebbing. We next set out to test the specificity of binding by analyzing the interaction of labeled BH296 with its unlabeled parental compound.
(§1) The confocal laser scanning microscopy was performed on an LSM 510 confocal microscope connected to an Axiovert 200M equipped with a C-Apochromat 40×/1.2 W water immersion objective (Carl Zeiss, Germany). The red fluorophore (Dy-647) was excited using a 633 nm helium–neon laser, whereas the green fluorophore (GFP) was excited using a 488 nm argon-ion laser.

PfFNT G107S-GFP [1] = target: T2, PfFNT G107S-GFP (Plasmodium falciparum, UniProt O77389, G107S); experiment: FCCS equilibrium saturation binding to solubilized PfFNT G107S mutant
T2 construct: The DNA of full-length PfFNT from Plasmodium falciparum 3D7 was cloned as a C-terminal GFP fusion; expressed in transfected cells; intact cells for imaging, LMNG-solubilized membranes for FCCS
T2 sequence (O77389 whole entry G107S, the tested form may be a part): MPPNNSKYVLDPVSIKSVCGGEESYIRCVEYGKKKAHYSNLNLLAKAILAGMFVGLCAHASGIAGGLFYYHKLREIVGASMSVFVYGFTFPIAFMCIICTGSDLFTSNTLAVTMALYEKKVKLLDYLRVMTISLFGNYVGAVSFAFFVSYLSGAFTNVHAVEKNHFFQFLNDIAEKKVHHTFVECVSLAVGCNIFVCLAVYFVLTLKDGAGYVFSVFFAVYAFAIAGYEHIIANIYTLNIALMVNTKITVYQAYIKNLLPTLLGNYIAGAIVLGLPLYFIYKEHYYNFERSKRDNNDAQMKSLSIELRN
Protocol: Next, we determined inhibitor binding affinities for both PfFNT and its G107S mutant. Solubilized cell membranes containing PfFNT-GFP at a concentration of 10 nM were incubated for 1 h at ambient temperature with increasing concentrations of labeled inhibitor molecules to obtain saturation binding curves and to calculate the dissociation constant (KD) of the interactions. Equilibrium binding experiments were pipetted in biological triplicates and carried out and analyzed as described in Antoine et al..
We next performed equilibrium saturation binding assays to assess the binding of both tracers to the mutant PfFNT G107S.
A cell pellet was resuspended in 1 mL of ice-cold TBS (50 mM Tris-HCl (pH 7.4) and 150 mM NaCl) supplemented with cOmplete™ Protease Inhibitor Cocktail (cat. no 11697498001, Roche, Switzerland) and broken by sonication on ice, using an Ultrasonic homogenizer SONOPULS HD 2070 (Bandelin, Germany). Cell debris was removed by centrifugation for 5 min at 1100× g at 4 °C, and membranes were harvested from the cleared lysate by subsequent centrifugation at 21,000× g. The resulting pellet containing cellular membranes was lysed using a Dounce homogenizer. The receptor was solubilized by incubation in 1% LMNG (cat. no NG310, Anatrace, USA) or in another detergent (DDM, DM, CHAPS, CHS, LDAO) when conducting tests to determine the best solubilization conditions. The insolubilized membrane material was removed by centrifugation for 1 h at 21,000× g at 4 °C, and the supernatant was collected and directly subjected to FCCS analysis or stored at −80 °C.
FCCS measurements were conducted in 384-well glass-bottom plates (cat. no PS96B-G175, SWISSCI, Switzerland) using an Insight plate reader (Evotec Technologies, Germany) fitted with a U-Apo300 40x water immersion lens, NA 1.15 (Olympus, Japan). The 488 nm laser line of an argon-ion laser and the light of a 633 nm helium–neon laser were used for excitation. Fluorescence fluctuations were recorded for 8 s with 12 repetitions and analyzed afterward using FCS+plus Analyze 1.1P (Evotec technologies, Version 1.2.5g). FCCS analysis was carried out as described previously. Briefly, for measuring the dissociation constant (KD), a titration series of 12 dilutions was prepared, where the concentration of the lysates obtained from HEK cells expressing GFP-fusions of PfFNT WT and G107S was kept constant, and the concentration of the labeled binding partner (BH296-DY647 and BH267.meta-DY647, respectively) was varied. The IC50 values were calculated by plotting the concentration from the dual labeled complex against the concentration of the competitor titrated over a concentration range from 10 µM to 10 pM. Samples were incubated for 1 h at room temperature prior to FCCS measurements to allow the formation of drug target complexes. From the resulting IC50 values, the Ki values were obtained by application of the Cheng Prusoff equation [17]. To assess the rate constants, time-resolved measurements were carried out at different concentrations of the labeled ligand. […] All KD and IC50 values, as well as kinetic parameters, were determined from three independently repeated experiments. The figures show one representative measurement; however, the calculated KD, Ki, kon and koff values are presented as an average of the three measurements ± SD. Error bars denote ± SEM.

PfFNT G107S-GFP [2] = target: T2, PfFNT G107S-GFP; experiment: Live cell confocal imaging, co-localization with PfFNT G107S-GFP in HEK293 cells; assay type: cell-based; conditions: for co-localization / membrane localization: 50 nM probe, 0.05% Triton X-100; for competition of BH267.meta-DY647 membrane localization by unlabeled compound: 100 µM unlabeled compound
Description: A PfFNT G107S mutant generated by sublethal dosing of BH296 in vitro parasite cultures has gained attention as it confers resistance against BH296, but the introduction of a scaffold nitrogen atom (BH267.meta; Figure 1) restored the effectiveness of the inhibitor [11]. The G107S mutation site is located at the cytoplasmic entrance of PfFNT and narrows the transport path precluding the binding of BH296 via sterical hinderance of the phenyl moiety of the compound. Exchange of the carbon atom in the meta-position of the aromatic ring of BH296 for a nitrogen atom introduced a hydrogen bond acceptor site for the serine hydroxyl of the resistance mutation and restored binding to the mutant PfFNT G107S. We analyzed the interaction of BH267.meta by cellular imaging. For this, we generated labeled BH267.meta-DY647 (Figure 1), expressed PfFNT G107S in HEK cells, and incubated the cells with BH296-DY647 or BH 267.meta-DY647 after treatment with 0.05% Triton X-100.
Whether these differences in signal intensity can be attributed to different affinities, to expression levels of the target protein, or to the cellular localization cannot be concluded from imaging-based experiments but requires biophysical analytical methods. However, the observation confirms previous findings that show the activity of BH267.meta on PfFNT G107S.
as §1

[3] = fluorescent probe titrated against solubilized PfFNT G107S-GFP

SMILES	co-localization / membrane localization (PfFNT-GFP)	Kd (PfFNT G107S-GFP [1]) [nM]	Active Receptor (%) (PfFNT G107S-GFP [1]; fraction of PfFNT G107S-GFP involved in binding at saturation)	co-localization / membrane localization (PfFNT G107S-GFP [2])	Kd (PfFNT G107S-GFP [1]; fluorescent probe titrated against solubilized PfFNT G107S-GFP, read-out: KD (equilibrium saturation binding)) [nM]	competition of BH267.meta-DY647 membrane localization by unlabeled compound (PfFNT G107S-GFP [2])	competition of labeled tracer binding by unlabeled compound (PfFNT-GFP; preincubation with 100 µM unlabeled compound, tracer BH296-DY647)	KD (equilibrium saturation binding) (PfFNT G107S-GFP [1]; [3])	co-localization / binding at plasma membrane (PfFNT-GFP; 50 nM probe, absence of Triton X-100, up to 1 h)
CCN1/C(=C/C=C/C=C/C2=[N+](CC)c3ccc(S(=O)(=O)O)cc3C2(C)CCCC(=O)NCCOCCOCCOCCOCCC(=O)NCCCOc2ccc(C(=O)/C=C(\O)C(F)(F)C(F)(F)F)cn2)C(C)(C)c2cc(S(=O)(=O)[O-])ccc21 (stereo not drawn) [BH267.meta-DY647]	localizes with PfFNT wildtype	405	n.d. 100%	co-localizes; also recorded: clear membrane stain	–	–	–	–	–
O=C(/C=C(\O)C(F)(F)C(F)(F)F)c1cccnc1 [BH267.meta]	binds efficiently	–	–	–	405	prevents membrane localization; also recorded: could be competed	–	–	–
O=C(C=C(O)C(F)(F)C(F)(F)F)c1ccc(O)cc1 [BH296, 4,4,5,5,5-pentafluoro-3-hydroxy-1-(4-hydroxyphenyl)pent-2-en-1-one]	–	–	–	did not localize to membranes	–	cannot compete	prevented binding of the labeled tracer; also recorded: completely abrogated binding	failed to bind within detection limits	–
CCN1/C(=C/C=C/C=C/C2=[N+](CC)c3ccc(S(=O)(=O)O)cc3C2(C)CCCC(=O)NCCOCCOCCOCCOCCC(=O)NCCCOc2ccc(C(=O)/C=C(\O)C(F)(F)C(F)(F)F)cc2)C(C)(C)c2cc(S(=O)(=O)[O-])ccc21 (stereo not drawn) [BH296-DY647]	clearly visible	> 2000	–	–	–	–	–	no affinity above background	No co-localization; also recorded: could not be observed
